Results reported in patent US12509452B2, “Substituted-isoxazoline-containing aromatic compound, preparation method therefor, herbicidal composition and use thereof” (QINGDAO KINGAGROOT CHEMICAL COMPOUND CO., LTD., priority 2019, dated 2025).

Assays:
Test in all cases: weeding effect in post-emergence stage
Assay type in all cases: in vivo
[1] = system: Alopecurus japonicus
Summary of the method: (§1)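 Post-emergence greenhouse pot test: 2-3 leaf weeds sprayed (acetone/Tween 80 formulation plus 1.5 liter/ha methyl oleate EC) at 500, 250, 125, 60, 15, 7.5 g a.i./ha; fresh weight control rate read 3 weeks later, graded 0 (<5%) to 5 (>85%); n=3 averages.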

[2] = system: Beckmannia syzigachne
Summary of the method: as §1

[3] = system: Conyza japonica
Summary of the method: as §1

[4] = system: Rorippa indica
Summary of the method: as §1

Structure (SMILES)	weeding effect in post-emergence stage, Alopecurus japonicus (activity level) ([1]; dose 15 g a.i./ha)	weeding effect in post-emergence stage, Beckmannia syzigachne (activity level) ([2]; dose 15 g a.i./ha)	weeding effect in post-emergence stage, Conyza japonica (activity level) ([3]; dose 15 g a.i./ha)	weeding effect in post-emergence stage, Rorippa indica (activity level) ([4]; dose 15 g a.i./ha)	weeding effect in post-emergence stage, Alopecurus japonicus (activity level) ([1]; dose 125 g a.i./ha)	weeding effect in post-emergence stage, Beckmannia syzigachne (activity level) ([2]; dose 125 g a.i./ha)	weeding effect in post-emergence stage, Conyza japonica (activity level) ([3]; dose 125 g a.i./ha)	weeding effect in post-emergence stage, Rorippa indica (activity level) ([4]; dose 125 g a.i./ha)
CCOC(=O)[C@]1(C(F)(F)F)CC(c2cc(-n3c(=O)n(C)c(=S)n(C)c3=O)c(F)cc2Cl)=NO1 [33(S)]	5 (Level 5: growth control rate is above 85%)	5 (Level 5: growth control rate is above 85%)	5 (Level 5: growth control rate is above 85%)	5 (Level 5: growth control rate is above 85%)				
CCOC(=O)CCCC1(C)CC(c2cc(-n3c(=O)n(C)c(=S)n(C)c3=O)c(F)cc2Cl)=NO1 (stereo not shown) [Compound 1-96]	5 (Level 5: growth control rate is above 85%)	5 (Level 5: growth control rate is above 85%)	5 (Level 5: growth control rate is above 85%)	5 (Level 5: growth control rate is above 85%)				
CCOC(=O)C1(C)CC(c2cc(-n3c(=O)cc(C(F)(F)F)n(C)c3=O)c(F)cc2Cl)=NO1 (stereo not shown) [drawing 745, reference compound]	2 (Level 2: growth control rate is greater than or equal to 20% and less than 40%)	1 (Level 1: growth control rate is greater than or equal to 5% and less than 20%)	1 (Level 1: growth control rate is greater than or equal to 5% and less than 20%)	1 (Level 1: growth control rate is greater than or equal to 5% and less than 20%)				
CCCCCCC(C)OC(=O)C1(C)CC(c2cc(-n3c(=O)n(C)c(=S)n(C)c3=O)c(F)cc2Cl)=NO1 (stereo not shown) [Compound 1-75]	5 (Level 5: growth control rate is above 85%)	5 (Level 5: growth control rate is above 85%)	5 (Level 5: growth control rate is above 85%)	5 (Level 5: growth control rate is above 85%)				
C#CCOC(=O)C1(C)CC(c2cc(-n3c(=O)n(C)c(=S)n(C)c3=O)c(F)cc2Cl)=NO1 (stereo not shown) [Compound 1-79]	5 (Level 5: growth control rate is above 85%)	5 (Level 5: growth control rate is above 85%)	5 (Level 5: growth control rate is above 85%)	5 (Level 5: growth control rate is above 85%)				
CCOCC1(C(=O)OCC)CC(c2cc(-n3c(=O)n(C)c(=S)n(C)c3=O)c(F)cc2Cl)=NO1 (racemic) [Compound 43]			4 (Level 4: growth control rate is greater than or equal to 60% and less than 85%)	5 (Level 5: growth control rate is above 85%)	5 (Level 5: growth control rate is above 85%)	5 (Level 5: growth control rate is above 85%)	5 (Level 5: growth control rate is above 85%)	5 (Level 5: growth control rate is above 85%)
C#CCCOC(=O)C1(C)CC(c2cc(-n3c(=O)n(C)c(=S)n(C)c3=O)c(F)cc2Cl)=NO1 (stereo not shown) [Compound 1-81]	5 (Level 5: growth control rate is above 85%)	5 (Level 5: growth control rate is above 85%)	5 (Level 5: growth control rate is above 85%)	5 (Level 5: growth control rate is above 85%)				
CCOC(=O)C1(COC=O)CC(c2cc(-n3c(=O)cc(C(F)(F)F)n(C)c3=O)c(F)cc2Cl)=NO1 (racemic) [Compound 218]					5 (Level 5: growth control rate is above 85%)	5 (Level 5: growth control rate is above 85%)	5 (Level 5: growth control rate is above 85%)	5 (Level 5: growth control rate is above 85%)
CCOC(=O)C1(CC(F)F)CC(c2cc(-n3c(=O)n(C)c(=S)n(C)c3=O)c(F)cc2Cl)=NO1 (racemic) [Compound 35]			4 (Level 4: growth control rate is greater than or equal to 60% and less than 85%)	5 (Level 5: growth control rate is above 85%)	5 (Level 5: growth control rate is above 85%)	5 (Level 5: growth control rate is above 85%)	5 (Level 5: growth control rate is above 85%)	5 (Level 5: growth control rate is above 85%)
